# Starred links: 1 amine or outer side, 2 acyl side, 3 side chain; linkers in the order of their positions; H or OH if unused. Positions of bridges follow the written chain, without caps; N, C: chain ends. Non-standard residues stand in square brackets, D forms with d. Residues, ends and D or L forms follow the SMILES beside them. Groups on a side chain read outwards from the residue. ξ: configuration not given here. *: point of attachment. X7 = O=C(O)CN1CCN(CC(=O)O)CCN(CC(=O)NCCOCCOCCOCCOCCOCCOCCOCCOCC(=O)*)CCN(CC(=O)O)CC1; Ala(piperidin-4-yl) = O=C([C@H](CC1CCN([*:3])CC1)N[*:1])[*:2]; Phe(3-CH2NH2) = O=C([C@H](Cc1cccc(CN[*:3])c1)N[*:1])[*:2]; DOTA = O=C(O)CN1CCN(CC(=O)O)CCN(CC(=O)*)CCN(CC(=O)O)CC1; Trp(5-F) = N[C@@H](Cc1c[nH]c2ccc(F)cc12)C(=O)O; Pro(trans-4-F) = O=C(O)[C@@H]1C[C@@H](F)CN1; Phe(4-F) = N[C@@H](Cc1ccc(F)cc1)C(=O)O; γGlu = O=C(O)[C@H](CCC(=O)[*:2])N[*:1]; 1Nal = N[C@@H](Cc1cccc2ccccc12)C(=O)O; Ala(4-THP) = N[C@@H](CC1CCOCC1)C(=O)O; 4Pal = N[C@@H](Cc1ccncc1)C(=O)O; Cha = N[C@@H](CC1CCCCC1)C(=O)O; Tle = CC(C)(C)[C@H](N)C(=O)O; hLeu = CC(C)CC[C@H](N)C(=O)O; Pip = O=C(O)[C@@H]1CCCCN1; ξF = NC(Cc1ccccc1)C(=O)O
# Biological target: T1, human 4lg B7-H3 (Homo sapiens, UniProt Q5ZPR3)
# T1 sequence (Q5ZPR3 29-534): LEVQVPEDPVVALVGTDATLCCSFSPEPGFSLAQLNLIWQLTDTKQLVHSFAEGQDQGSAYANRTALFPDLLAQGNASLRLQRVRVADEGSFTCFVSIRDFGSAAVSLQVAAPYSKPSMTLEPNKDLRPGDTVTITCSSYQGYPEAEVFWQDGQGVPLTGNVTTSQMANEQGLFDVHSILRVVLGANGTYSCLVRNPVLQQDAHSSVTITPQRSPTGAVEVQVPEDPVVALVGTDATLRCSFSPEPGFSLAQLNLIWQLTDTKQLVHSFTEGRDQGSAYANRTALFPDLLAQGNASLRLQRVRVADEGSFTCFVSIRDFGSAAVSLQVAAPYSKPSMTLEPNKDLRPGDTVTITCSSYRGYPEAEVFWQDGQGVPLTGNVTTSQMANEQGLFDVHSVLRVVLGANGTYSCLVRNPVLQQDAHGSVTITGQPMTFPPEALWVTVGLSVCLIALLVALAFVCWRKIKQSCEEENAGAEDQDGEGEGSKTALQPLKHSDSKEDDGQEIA
# Assay: Affinity determination by surface plasmon resonance (SPR) to 4Ig B7-H3
# Conditions: SPR KD—25° C., 4Ig B7-H3; 25° C. flow cell temperature
row,Kd [nM],SMILES
1,1 to 10,"CC(=O)N[C@@H](CCC(C)C)C(=O)N[C@@H](Cc1ccc(O)cc1)C(=O)N[C@H]1CSSC[C@@H](C(=O)N[C@@H](Cc2cccc3ccccc23)C(=O)N[C@@H](Cc2ccccc2)C(=O)N2C[C@H](F)C[C@H]2C(=O)O)NC(=O)[C@H](Cc2ccc(O)cc2)NC(=O)[C@H](C(C)C)NC(=O)[C@H](CC(=O)O)NC(=O)[C@H](Cc2ccncc2)NC(=O)[C@H](CCCCNC(=O)CN2CCN(CC(=O)O)CCN(CC(=O)O)CCN(CC(=O)O)CC2)NC(=O)CNC(=O)[C@H](C(C)(C)C)NC1=O [compound 264, Ac-hLeu-Y-C-Tbg-G-Lys(DOTA)-4PyA-D-V-Y-C-1Nal-F-trans4FPro-CONH2] (Ac-[hLeu]YC[Tle]GK(DOTA)[4Pal]DVYC[1Nal]F[Pro(trans-4-F)]-OH; disulfide 3-11)"
2,10 to 100,"CC(=O)N[C@@H](CCC(C)C)C(=O)N[C@@H](Cc1ccc(O)cc1)C(=O)N[C@H]1CSSC[C@@H](C(=O)N[C@@H](Cc2cccc3ccccc23)C(=O)N[C@@H](Cc2ccccc2)C(=O)N2CCCC[C@H]2C(=O)O)NC(=O)[C@H](Cc2ccc(O)cc2)NC(=O)[C@H](C(C)C)NC(=O)[C@H](CC(=O)O)NC(=O)[C@H](Cc2ccncc2)NC(=O)[C@H](CCCCNC(=O)CN2CCN(CC(=O)O)CCN(CC(=O)O)CCN(CC(=O)O)CC2)NC(=O)CNC(=O)[C@H](C(C)(C)C)NC1=O [compound 265, Ac-hLeu-Y-C-Tbg-G-Lys(DOTA)-4PyA-D-V-Y-C-1Nal-F-Pip acid-CONH2] (Ac-[hLeu]YC[Tle]GK(DOTA)[4Pal]DVYC[1Nal]F[Pip]-OH; disulfide 3-11)"
3,< 1,"CC(=O)N[C@@H](CCC(C)C)C(=O)N[C@@H](Cc1ccc(O)cc1)C(=O)N[C@H]1CSSC[C@@H](C(=O)N[C@@H](Cc2c[nH]c3ccc(F)cc23)C(=O)N[C@@H](Cc2ccccc2)C(=O)N2CCC[C@H]2C(=O)N[C@H](CCCCNC(=O)CN2CCN(CC(=O)O)CCN(CC(=O)O)CCN(CC(=O)O)CC2)C(N)=O)NC(=O)[C@H](Cc2ccc(O)cc2)NC(=O)[C@H](C(C)C)NC(=O)[C@H](CC(=O)O)NC(=O)[C@H](CC2CCOCC2)NC(=O)[C@H](CCCCN)NC(=O)CNC(=O)[C@H](C(C)C)NC1=O [compound 271, Ac-hLeu-Y-C-V-G-K-ThpA-D-V-Y-C-5FW-F-Pro-dLys(DOTA)-CONH2] (Ac-[hLeu]YCVGK[Ala(4-THP)]DVYC[Trp(5-F)]FP[dK](DOTA)-NH2; disulfide 3-11)"
4,100 to 300,"CC(C)CC[C@H](NC(=O)CC[C@H](NC(=O)CC[C@H](NC(=O)CC[C@H](NC(=O)CN1CCN(CC(=O)O)CCN(CC(=O)O)CCN(CC(=O)O)CC1)C(=O)O)C(=O)O)C(=O)O)C(=O)N[C@@H](Cc1ccc(F)cc1)C(=O)N[C@H]1CSSC[C@@H](C(=O)N[C@@H](Cc2cccc3ccccc23)C(=O)N[C@@H](Cc2ccccc2)C(=O)N2CCC[C@H]2C(N)=O)NC(=O)[C@H](Cc2ccc(O)cc2)NC(=O)[C@H](C(C)C)NC(=O)[C@H](CC(=O)O)NC(=O)[C@H](CC2CCOCC2)NC(=O)[C@H](CC2CCNCC2)NC(=O)CNC(=O)[C@H](C(C)(C)C)NC1=O [compound 272, DOTA-gE-gE-gE-hLeu-4FPhe-C-Tbg-G-PipAla-ThpA-D-V-Y-C-1Nal-F-Pro-CONH2] ({DOTA-γGlu-γGlu-γGlu}-[hLeu][Phe(4-F)]C[Tle]G[Ala(piperidin-4-yl)][Ala(4-THP)]DVYC[1Nal]FP-NH2; disulfide 3-11)"
5,10 to 100,"CC(=O)N[C@@H](CCC(C)C)C(=O)N[C@@H](Cc1ccc(O)cc1)C(=O)N[C@H]1CSSC[C@@H](C(=O)N[C@@H](Cc2c[nH]c3ccc(F)cc23)C(=O)N[C@@H](Cc2ccccc2)C(=O)N2CCC[C@H]2C(N)=O)NC(=O)[C@H](Cc2ccc(O)cc2)NC(=O)[C@H](C(C)C)NC(=O)[C@H](CC(=O)O)NC(=O)[C@H](CC2CCOCC2)NC(=O)[C@H](CCCCNC(=O)CN2CCN(CC(=O)O)CCN(CC(=O)O)CCN(CC(=O)O)CC2)NC(=O)CNC(=O)[C@H](C(C)(C)C)NC1=O [compound 273, Ac-hLeu-Y-C-Tbg-G-Lys(DOTA)-ThpA-D-V-Y-C-5FW-F-Pro-CONH2] (Ac-[hLeu]YC[Tle]GK(DOTA)[Ala(4-THP)]DVYC[Trp(5-F)]FP-NH2; disulfide 3-11)"
6,< 1,"CC(=O)N[C@@H](CCC(C)C)C(=O)N[C@@H](Cc1ccc(O)cc1)C(=O)N[C@H]1CSSC[C@@H](C(=O)N[C@@H](Cc2cccc3ccccc23)C(=O)N[C@@H](Cc2ccccc2)C(=O)N2CCC[C@H]2C(=O)N[C@H](CCCCNC(=O)CC[C@H](NC(=O)CN2CCN(CC(=O)O)CCN(CC(=O)O)CCN(CC(=O)O)CC2)C(=O)O)C(N)=O)NC(=O)[C@H](Cc2ccc(O)cc2)NC(=O)[C@H](C(C)C)NC(=O)[C@H](CC(=O)O)NC(=O)[C@H](CC2CCOCC2)NC(=O)[C@H](CCCCN)NC(=O)CNC(=O)[C@H](C(C)(C)C)NC1=O [compound 274, Ac-hLeu-Y-C-Tbg-G-K-ThpA-D-V-Y-C-1Nal-F-Pro-dLys(gE-DOTA)-CONH2] (Ac-[hLeu]YC[Tle]GK[Ala(4-THP)]DVYC[1Nal]FP[dK]([γGlu-DOTA])-NH2; disulfide 3-11)"
7,1 to 10,"CC(=O)N[C@@H](CCC(C)C)C(=O)N[C@@H](Cc1ccc(O)cc1)C(=O)N[C@H]1CSSC[C@@H](C(=O)N[C@@H](Cc2cccc3ccccc23)C(=O)N[C@@H](Cc2ccccc2)C(=O)N2CCC[C@H]2C(=O)N[C@H](CCCCNC(=O)CC[C@H](NC(=O)CC[C@H](NC(=O)CN2CCN(CC(=O)O)CCN(CC(=O)O)CCN(CC(=O)O)CC2)C(=O)O)C(=O)O)C(N)=O)NC(=O)[C@H](Cc2ccc(O)cc2)NC(=O)[C@H](C(C)C)NC(=O)[C@H](CC(=O)O)NC(=O)[C@H](CC2CCOCC2)NC(=O)[C@H](CCCCN)NC(=O)CNC(=O)[C@H](C(C)(C)C)NC1=O [compound 275, Ac-hLeu-Y-C-Tbg-G-K-ThpA-D-V-Y-C-1Nal-F-Pro-dLys(gE-gE-DOTA)-CONH2] (Ac-[hLeu]YC[Tle]GK[Ala(4-THP)]DVYC[1Nal]FP[dK]([γGlu-γGlu-DOTA])-NH2; disulfide 3-11)"
8,1 to 10,"CC(=O)N[C@@H](CCC(C)C)C(=O)N[C@@H](Cc1ccc(O)cc1)C(=O)N[C@H]1CSSC[C@@H](C(=O)N[C@@H](Cc2cccc3ccccc23)C(=O)NC(Cc2ccccc2)C(=O)N2CCC[C@H]2C(=O)N[C@H](CCCCNC(=O)CC[C@H](NC(=O)CC[C@H](NC(=O)CC[C@H](NC(=O)CN2CCN(CC(=O)O)CCN(CC(=O)O)CCN(CC(=O)O)CC2)C(=O)O)C(=O)O)C(=O)O)C(N)=O)NC(=O)[C@H](Cc2ccc(O)cc2)NC(=O)[C@H](C(C)C)NC(=O)[C@H](CC(=O)O)NC(=O)[C@H](CC2CCOCC2)NC(=O)[C@H](CCCCN)NC(=O)CNC(=O)[C@H](C(C)(C)C)NC1=O (stereo partly drawn) [compound 276, Ac-hLeu-Y-C-Tbg-G-K-ThpA-D-V-Y-C-1Nal-F-Pro-dLys(gE-gE-gE-DOTA)-CONH2] (Ac-[hLeu]YC[Tle]GK[Ala(4-THP)]DVYC[1Nal][ξF]P[dK]([γGlu-γGlu-γGlu-DOTA])-NH2; disulfide 3-11)"
9,1 to 10,"CC(=O)N[C@@H](CCC(C)C)C(=O)N[C@@H](Cc1ccc(O)cc1)C(=O)N[C@H]1CSSC[C@@H](C(=O)N[C@@H](Cc2cccc3ccccc23)C(=O)NC(Cc2ccccc2)C(=O)N2CCC[C@H]2C(=O)N[C@H](CCCCNC(=O)CC[C@H](NC(=O)CN2CCN(CC(=O)O)CCN(CC(=O)O)CCN(CC(=O)O)CC2)C(=O)O)C(N)=O)NC(=O)[C@H](Cc2ccc(O)cc2)NC(=O)[C@H](C(C)C)NC(=O)[C@H](CC(=O)O)NC(=O)[C@H](CC2CCCCC2)NC(=O)[C@H](CC2CCNCC2)NC(=O)CNC(=O)[C@H](C(C)(C)C)NC1=O (stereo partly drawn) [compound 277, Ac-hLeu-Y-C-Tbg-G-PipAla-CHA-D-V-Y-C-1Nal-F-Pro-dLys(gE-DOTA)-CONH2] (Ac-[hLeu]YC[Tle]G[Ala(piperidin-4-yl)][Cha]DVYC[1Nal][ξF]P[dK]([γGlu-DOTA])-NH2; disulfide 3-11)"
10,1 to 10,"CC(=O)N[C@@H](CCC(C)C)C(=O)N[C@@H](Cc1ccc(O)cc1)C(=O)N[C@H]1CSSC[C@@H](C(=O)N[C@@H](Cc2cccc3ccccc23)C(=O)N[C@@H](Cc2ccccc2)C(=O)N2CCC[C@H]2C(=O)N[C@H](CCCCNC(=O)CC[C@H](NC(=O)CC[C@H](NC(=O)CC[C@H](NC(=O)CN2CCN(CC(=O)O)CCN(CC(=O)O)CCN(CC(=O)O)CC2)C(=O)O)C(=O)O)C(=O)O)C(N)=O)NC(=O)[C@H](Cc2ccc(O)cc2)NC(=O)[C@H](C(C)C)NC(=O)[C@H](CC(=O)O)NC(=O)[C@H](CC2CCCCC2)NC(=O)[C@H](CC2CCNCC2)NC(=O)CNC(=O)[C@H](C(C)(C)C)NC1=O [compound 278, Ac-hLeu-Y-C-Tbg-G-PipAla-CHA-D-V-Y-C-1Nal-F-Pro-dLys(gE-gE-DOTA)-CONH2] (Ac-[hLeu]YC[Tle]G[Ala(piperidin-4-yl)][Cha]DVYC[1Nal]FP[dK]([γGlu-γGlu-γGlu-DOTA])-NH2; disulfide 3-11)"
11,1 to 10,"CC(=O)N[C@@H](CCC(C)C)C(=O)N[C@@H](Cc1ccc(O)cc1)C(=O)N[C@H]1CSSC[C@@H](C(=O)N[C@@H](Cc2cccc3ccccc23)C(=O)N[C@@H](Cc2ccccc2)C(=O)N2CCC[C@H]2C(N)=O)NC(=O)[C@H](Cc2ccc(O)cc2)NC(=O)[C@H](C(C)C)NC(=O)[C@H](CC(=O)O)NC(=O)[C@H](Cc2cccc(CNC(=O)COCCOCCOCCOCCOCCOCCOCCOCCNC(=O)CN3CCN(CC(=O)O)CCN(CC(=O)O)CCN(CC(=O)O)CC3)c2)NC(=O)[C@H](CCCCN)NC(=O)CNC(=O)[C@H](C(C)(C)C)NC1=O [compound 279, Ac-hLeu-Y-C-Tbg-G-K-MAF(PEG8-DOTA)-D-V-Y-C-1Nal-F-Pro-CONH2] (Ac-[hLeu]YC[Tle]GK[Phe(3-CH2NH2)](X7)DVYC[1Nal]FP-NH2; disulfide 3-11)"

# Reference: patent US20250296959A1, “B7-H3 TARGETING PEPTIDES AND CONSTRUCTS THEREOF” (Mariana Oncology Inc., priority 2024, published 2025)
